# Assays:
# [1] = test system: transgenic line 719 soybean; test: Field trial of seed coatings under soil compaction / different soils, GA-deficient soybean; format: in vivo, Glycine max; settings: for Count (emergence) / Dwarfs (number of dwarfs not rescued) / Dwarfs (number not rescued): Line 719; for rank of potential for rescuing GA-deficient dwarf soybeans without decreasing emergence: based on the last two field trials; for best to least selectivity order: emergence under soil compaction, margin of selectivity, rescue without overelongation
# [2] = test system: AX5/antisense CPScc soybean line 46 (R2); test: Hilum seed treatment of epicotyl-intensive GA-deficient soybean, seedling height (FIG. 42); format: in vivo, Glycine max; settings: 8 DAP
# Description: These studies are performed on soybean plants engineered to express their GA-deficient phenotype throughout the life cycle via the use of the constitutive FMV promoter (line 719, FMV/antisense CPScc). In contrast to the constitutive FMV promoter, the peak activity of the AX5 promoter is developmentally restricted to the soybean seedling axis (epicotyl) three to five days after the start of imbibition, with limited expression beyond the seedling stage of development. Soybean lines transformed with the […] cassette therefore display an epicotyl-intensive dwarf phenotype. In these lines, inhibition of the hypocotyl is modest; most of the total height reduction in these plants is due to shortening of the epicotyl. Rescue of […] soybean plants therefore presents different technical challenges from those required for rescue of constitutively GA-deficient transgenic dwarf soybean lines containing the […] construct. […] Seed from both lines is produced from greenhouse-grown plants. […] If multiple applications are made to seeds, the previous application is allowed to dry before a subsequent application is made. […] (29° C.) day and 75° F. night (24° C.). Pots are watered as necessary by overhead hand watering. Hypocotyl and epicotyl measurements are made for each plant at various stages of plant growth. […] The results are shown in FIG. 42, where the error bar represents +/-two times the standard error of the mean (n=12-15). […] The upper dashed horizontal line represents the total height of untreated wild-type […] soybeans. Measurements are made 8 days after planting.
# [3] = test system: AX5/antisense CPScc soybean line 234 (R3); test: Hilum seed treatment of epicotyl-intensive GA-deficient soybean, height (FIG. 43); format: in vivo, Glycine max; settings: 10 DAP; for restoration of height of line 234 soybeans: hypocotyl and epicotyl elongation, hypocotyl to epicotyl ratio not maintained; for response of line 234 height: seed treatment rates between 0.1 and 1 μg/seed
# Description: The purpose of this study is to evaluate the ability of four GA compounds, i.e., GA9, GA5, GA3-3-acetate, and GA12, to restore normal growth in AX5/antisense CPScc soybean lines when applied as a seed treatment.
# Line 46 plants are R2; Line 234 plants are R3.
# The GA compounds are dissolved in ethanol and applied to the hilum of dry seeds as not more than 10 μl droplets with a syringe. If multiple applications are made to seeds, the previous application is allowed to dry before a subsequent application is made.
# Seeds are sown 1 inch deep in commercial potting soil (Metromix 200) in 4-inch plastic pots and placed in a greenhouse set for 12 hours artificial light and a temperature regime of 85° F. (29° C.) day and 75° F. night (24° C.). Pots are watered as necessary by overhead hand watering. Hypocotyl and epicotyl measurements are made for each plant at various stages of plant growth.
# The lower dashed horizontal line represents the total height of untreated AX5 line 234 soybeans. The upper dashed horizontal line represents the total height of untreated wild-type A4922 soybeans. Measurements are made 10 days after planting.
# [4] = Particulate material present in solutions after mixing; format: physicochemical
# Description: Each of the compounds noted above is weighed to the nearest 0.1 mg in a pre-tarred 1.5-ml polypropylene vial with a screw-top lid. Absolute ethanol is added to the weighed powder to prepare a 25 mg/ml solution. Solutions are thoroughly mixed using a vortex mixer. A stainless steel spatula is used to crush any particulate material remaining after extensive mixing. Vials are left overnight at room temperature, and then remixed to form the concentrated ethanol stock solutions. The presence of undissolved material is noted throughout this procedure.
# [5] = Heavy soil - Loose, target rate 0.5 μg/seed, Table 23
# [6] = Heavy soil - Loose, target rate 2.0 μg/seed, Table 23
# [7] = Heavy soil - Loose, target rate 4.0 μg/seed, Table 23
# [8] = Heavy soil - compacted, target rate 0.5 μg/seed, Table 23
# [9] = Heavy soil - compacted, target rate 2.0 μg/seed, Table 23
# [10] = Heavy soil - compacted, target rate 4.0 μg/seed, Table 23
# [11] = Heavy soil - loose, target rate 0.5 μg/seed, Table 22
# [12] = Heavy soil - loose, target rate 2.0 μg/seed, Table 22
# [13] = Light soil - Compacted, target rate 0.5 μg/seed, Table 22
# [14] = Light soil - Compacted, target rate 2.0 μg/seed, Table 22
# [15] = Light soil - Loose, target rate 0.5 μg/seed, Table 24
# [16] = Light soil - Loose, target rate 2.0 μg/seed, Table 24
# [17] = Light soil - Loose, target rate 4.0 μg/seed, Table 24
# [18] = Light soil - compacted, target rate 0.5 μg/seed, Table 24
# [19] = Light soil - compacted, target rate 2.0 μg/seed, Table 24
# [20] = Light soil - compacted, target rate 4.0 μg/seed, Table 24
SMILES,"Count (emergence) [1, 5] [bcd]","Dwarfs (number of dwarfs not rescued) [1, 5]","Count (emergence) [1, 6]","Dwarfs (number of dwarfs not rescued) [1, 6]","Count (emergence) [1, 7]","Dwarfs (number of dwarfs not rescued) [1, 7] [e]","Count (emergence) [1, 8]","Dwarfs (number of dwarfs not rescued) [1, 8]","Count (emergence) [1, 9]","Dwarfs (number of dwarfs not rescued) [1, 9] [days]","Count (emergence) [1, 10]","Dwarfs (number of dwarfs not rescued) [1, 10] [days]","Count (emergence) [1, 11] [bcd]","Dwarfs (number of dwarfs not rescued) [1, 11]","Count (emergence) [1, 12]","Dwarfs (number of dwarfs not rescued) [1, 12]","Count (emergence) [1, 13]","Dwarfs (number of dwarfs not rescued) [1, 13] [days]","Count (emergence) [1, 14]","Dwarfs (number of dwarfs not rescued) [1, 14] [days]",also measured
C=C1C[C@]23C[C@@]1(O)CC[C@H]2[C@@]12C=C[C@H](OC(C)=O)[C@@](C)(C(=O)O1)[C@H]2[C@@H]3C(=O)O [GA3-3-acetate],31.3,0.3 de,27.3 cd,0 e,18.3 ef,0,10.3 c-f,0.3 cd,7.3 efg,0,2.0 g,0,31,3.3 c,27 cd,0.3 de,25 def,0,22 efg,0,"Count (emergence) [1, 15]: 45.3 ab; Dwarfs (number not rescued) [1, 15]: 0.3 e; Count (emergence) [1, 16]: 43.3 ab; Dwarfs (number not rescued) [1, 16]: 0 c; Count (emergence) [1, 17]: 42.7 ab; Dwarfs (number not rescued) [1, 17]: 0 c; Count (emergence) [1, 18]: 25.3 def; Dwarfs (number not rescued) [1, 18]: 0; Count (emergence) [1, 19]: 22.0 efg; Dwarfs (number not rescued) [1, 19]: 0; Count (emergence) [1, 20]: 33.7 a-e; Dwarfs (number not rescued) [1, 20]: 0; rank of potential for rescuing GA-deficient dwarf soybeans without decreasing emergence [1]: GA9>GA5>GA3-3-acetate>GA3>GA12; best to least selectivity order ([1]; Table 22): GA9>GA5>GA3-3-acetate>GA3; effect on line 46 total height [2]: rescued AX5/asCPScc soybean line 46 total height, with some hypocotyl over-elongation; restoration of height of line 234 soybeans [3]: restore normal height to line 234 soybeans; response of line 234 height [3]: generally similar response"
C=C1C[C@]23C[C@@]1(O)CC[C@H]2[C@@]12CC=C[C@@](C)(C(=O)O1)[C@H]2[C@@H]3C(=O)O [GA5],31.7,2.0 cde,32.3 bcd,0.7 cde,30.3 bcd,0,18.3 ab,0 days,9.0 g·days,0,7.0 efg,0,32,2.0 cde,32 bcd,0.7 cde,39 abc,0,30 a-f,0,"Count (emergence) [1, 15]: 46.3 a; Dwarfs (number not rescued) [1, 15]: 1.0 e; Count (emergence) [1, 16]: 43.3 ab; Dwarfs (number not rescued) [1, 16]: 0 e; Count (emergence) [1, 17]: 45.0 ab; Dwarfs (number not rescued) [1, 17]: 0 e; Count (emergence) [1, 18]: 39.0 abc; Dwarfs (number not rescued) [1, 18]: 0; Count (emergence) [1, 19]: 30.3 a-f; Dwarfs (number not rescued) [1, 19]: 0; Count (emergence) [1, 20]: 32.7 a-e; Dwarfs (number not rescued) [1, 20]: 0; rank of potential for rescuing GA-deficient dwarf soybeans without decreasing emergence [1]: GA9>GA5>GA3-3-acetate>GA3>GA12; best to least selectivity order ([1]; Table 22): GA9>GA5>GA3-3-acetate>GA3; effect on line 46 total height [2]: rescued AX5/asCPScc soybean line 46 total height, with some hypocotyl over-elongation; restoration of height of line 234 soybeans [3]: restore normal height to line 234 soybeans; response of line 234 height [3]: generally similar response"
C=C1C[C@@]23CC[C@H]4[C@@](C)(CCC[C@@]4(C)C(=O)O)[C@@H]2CC[C@@H]1C3 [kaurenoic acid],,,,,,,,,,,,,,,,,,,,,"Particulate material present, 100X Diln w/water ([4]; 0.25 mg/ml compound in water): YES; solubility in water during imbibition ([4]; 0.25 mg/ml treatment solutions): less soluble in water during imbibition"

# Reference: patent publication US6723897B2, “Methods for controlling gibberellin levels” (Monsanto Technology, LLC, priority 1998, dated 2004)
